The values below come from patent publication US8637510B2, “Morpholinothiazoles as alpha 7 positive allosteric modulators” (Janssen Pharmaceutica NV, priority 2009, dated 2014).

The target of one data set is T1, human alpha 7-wt nAChR (Homo sapiens, UniProt P36544).
T1 construct: expressed in transfected cells
The data set is described as follows: Ca2+ flux imaging (FDSS) (Protocol B). The following applies: for Emax / a7-PAM-G_[33]_Eff_Curve_FI % Efficacy: efficacy of 100 μM choline defined as 100% in the absence of a PAM; for Emax: read-out: a7-PAM-G_[33]_Eff_Curve_FI % Efficacy; for EC50: potentiation of 100 μM choline, compounds 0.01 μM to 30 μM, read-out: a7-PAM-G_[33]_pEC50 pEC50 (converted). The class given is cell-based. An outline of the steps: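 PAM activity was measured as FDSS calcium fluorescence in α7-wt nAChR cells loaded with 2 μM Fluo-4AM, with compounds at 0.01–30 μM added alongside or 10 min ahead of sub-maximal 100 μM choline. Peak responses were normalised to choline-only efficacy, and EC50 was taken at half-maximal effect.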
Background: A change in cytosolic calcium serves as a functional read-out for many receptors and channels.

The target of data set [1] is T2, human alpha 7-wt nAChR-expressing GH4C1 cells (Homo sapiens, UniProt P36544).
T2 construct: expressed in transfected cells
T2 sequence (P36544 23-502): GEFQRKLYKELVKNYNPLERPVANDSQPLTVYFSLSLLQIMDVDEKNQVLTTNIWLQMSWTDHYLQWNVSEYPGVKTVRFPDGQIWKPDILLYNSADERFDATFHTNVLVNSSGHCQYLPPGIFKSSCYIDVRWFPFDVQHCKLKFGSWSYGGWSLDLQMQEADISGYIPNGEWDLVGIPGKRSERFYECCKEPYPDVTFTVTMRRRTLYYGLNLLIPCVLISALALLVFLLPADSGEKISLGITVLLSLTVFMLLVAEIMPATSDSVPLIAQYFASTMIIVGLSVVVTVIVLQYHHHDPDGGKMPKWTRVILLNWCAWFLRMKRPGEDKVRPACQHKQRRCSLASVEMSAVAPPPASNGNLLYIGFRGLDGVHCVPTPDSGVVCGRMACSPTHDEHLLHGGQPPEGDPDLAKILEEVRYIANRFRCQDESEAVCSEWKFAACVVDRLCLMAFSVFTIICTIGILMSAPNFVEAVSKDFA
The data set is described as follows: Patch-clamp current recording (whole-cell voltage-clamp, PAM type classification). The class given is cell-based. On the set-up: key: Type 0 compounds minimally change the effect size of the current elicited by 1 mM choline.; Type 1 compounds enhance the effect size of the current elicited by 1 mM choline but minimally alter the kinetics of the receptor.; Type 2 compounds enhance the effect size of the current elicited by 1 mM choline while reducing the rate and/or the extent of desensitization.; Type 3 compounds enhance the effect size of the current elicited by 1 mM choline. When tested at higher concentrations up to 10 μM they completely inhibit desensitization; Type 4 compounds allow for an initial desensitization of the receptor followed by a re-opening of the receptor during agonist application. The following applies: 1 mM choline. In a few lines: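 Whole-cell voltage clamp of GH4C1 cells stably expressing human wild-type α7 nAChR, with compound co-applied with 1 mM choline via rapid (<100 ms) solution switching; external pH 7.3, CsCl-based internal solution, 1.5-3 MΩ electrodes. PAM type (0-4) assigned from current kinetics when peak potentiation reached ≥200% of control choline response.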

T1 sequence (P36544 23-502): as above

As to `COc1cc(-c2sc(N3C[C@@H](C)O[C@@H](C)C3)nc2CNC(=O)CC2CC2)cc(C)n1` [Compound 83, N-[[2-[(2R,6S)-2,6-dimethyl-4-morpholinyl]-5-(2-methoxy-6-methyl-4-pyridinyl)-4-thiazolyl]methyl]-cyclopropaneacetamide], the melting point came out at 171 °C. On human alpha 7-wt nAChR, the Emax came out at 584% and the EC50 is 0.145 µM. Moreover, in data set [1], the “PAM_Type PAM type” value turned out to be 2.
Compound `Cc1cc(-c2sc(N3CCOC(C)C3)nc2CNC(=O)CC2CC2)cc(C)n1` (single isomer, unassigned) [Compound 78, N-[[5-(2,6-dimethyl-4-pyridinyl)-2-[(2S*)-2-methyl-4-morpholinyl]-4-thiazolyl]methyl]-cyclopropaneacetamide] displayed a melting point of 169 °C. Moreover, on human alpha 7-wt nAChR, the “a7-PAM-G_[33]_Eff_Curve_FI % Efficacy” value is listed as 919% and the EC50 was 1.17 µM. The “PAM_Type PAM type” value in data set [1] amounted to 2.
`C[C@@H]1CN(c2nc(CNC(=O)CC3CC3)c(-c3ccnc(C(F)(F)F)c3)s2)C[C@H](C)O1` [Compound 200, N-[[2-[(2R,6S)-2,6-dimethyl-4-morpholinyl]-5-[2-(trifluoromethyl)-4-pyridinyl]-4-thiazolyl]methyl]-cyclopropaneacetamide] showed a melting point of 198 °C. In addition, on human alpha 7-wt nAChR, the EC50 is 0.162 µM. Moreover, the “PAM_Type PAM type” value in data set [1] turned out to be 1.
Compound `Cc1cc(-c2sc(N3CCO[C@H](C(F)(F)F)C3)nc2CNC(=O)CC2CC2)cc(C)n1` [Compound 192, N-[[5-(2,6-dimethyl-4-pyridinyl)-2-[(2S)-2-(trifluoromethyl)-4-morpholinyl]-4-thiazolyl]methyl]-cyclopropaneacetamide] showed a melting point of 183 °C. In addition, on human alpha 7-wt nAChR, the Emax came to 670% and the EC50 was 0.234 µM. Moreover, the “PAM_Type PAM type” value in data set [1] came to 2.
In the same order, the values of `Cc1cc(-c2sc(N3C[C@@H](C)O[C@@H](C)C3)nc2CNC(=O)c2cc(C)on2)ccn1` [Compound 87, N-[[2-[(2R,6S)-2,6-dimethyl-4-morpholinyl]-5-(2-methyl-4-pyridinyl)-4-thiazolyl]methyl]-5-methyl-3-isoxazolecarboxamide] are 177 °C, 646%, 0.813 µM and 2.
`Cc1cc(C(=O)NCc2nc(N3C[C@@H](C)O[C@@H](C)C3)sc2-c2cc(C)nc(C)c2)on1` [Compound 4, N-[[2-[(2R,6S)-2,6-dimethyl-4-morpholinyl]-5-(2,6-dimethyl-4-pyridinyl)-4-thiazolyl]methyl]-3-methyl-5-isoxazolecarboxamide] had a melting point of 184 °C. Moreover, at human alpha 7-wt nAChR, the Emax is 927% and the EC50 was 1.41 µM. The “PAM_Type PAM type” value in data set [1] was 2.
In the same order, the values of `COc1cc(-c2sc(N3C[C@@H](C)O[C@@H](C)C3)nc2CNC(=O)c2cc(C)on2)cc(C)n1` [Compound 82, N-[[2-[(2R,6S)-2,6-dimethyl-4-morpholinyl]-5-(2-methoxy-6-methyl-4-pyridinyl)-4-thiazolyl]methyl]-5-methyl-3-isoxazolecarboxamide] are 203 °C, 459%, 0.324 µM and 1.
For `Cc1cc(-c2sc(N3C[C@@H](C)O[C@@H](C)C3)nc2CNC(=O)CC2CC2)ccn1` [Compound 88, N-[[2-[(2R,6S)-2,6-dimethyl-4-morpholinyl]-5-(2-methyl-4-pyridinyl)-4-thiazolyl]methyl]-cyclopropaneacetamide], the melting point stood at 177 °C. Also, at human alpha 7-wt nAChR, the Emax was 736% and the EC50 is 0.562 µM. Also, the “PAM_Type PAM type” value in data set [1] was found to be 2.
The like results for `Cc1cc(-c2sc(N3C[C@@H](C)O[C@@H](C)C3)nc2CNC(=O)c2ccccc2Cl)ccn1` [Compound 90, 2-chloro-N-[[2-[(2R,6S)-2,6-dimethyl-4-morpholinyl]-5-(2-methyl-4-pyridinyl)-4-thiazolyl]methyl]-benzamide] were, in that order, 155 °C, 491%, 0.49 µM and 2.
`Cc1cc(-c2sc(N3C[C@@H](C)O[C@@H](C)C3)nc2CNC(=O)c2cc(C)on2)cc(C)n1` [Compound 3, N-[[2-[(2R,6S)-2,6-dimethyl-4-morpholinyl]-5-(2,6-dimethyl-4-pyridinyl)-4-thiazolyl]methyl]-5-methyl-3-isoxazolecarboxamide] gave a melting point of 208 °C. Moreover, the EC50 at human alpha 7-wt nAChR was 0.813 µM. For the same compound, the “PAM_Type PAM type” value in data set [1] stood at 1.
`Cc1cc(-c2sc(N3CC4CCC(C3)O4)nc2CNC(=O)c2ccc(F)cc2C)cc(C)n1` [Compound 208, N-[[5-(2,6-dimethyl-4-pyridinyl)-2-(8-oxa-3-azabicyclo[3.2.1]oct-3-y1)-4-thiazolyl]methyl]-4-fluoro-2-methyl-benzamide] came in with a melting point of 194 °C. Further, at human alpha 7-wt nAChR, the Emax stood at 898% and the EC50 was 0.603 µM. Further, the “PAM_Type PAM type” value in data set [1] came to 2.
With `Cc1cc(-c2sc(N3CCOC(C)C3)nc2CNC(=O)C(C)C)cc(C)n1` (single isomer, unassigned) [Compound 71, N-[[5-(2,6-dimethyl-4-pyridinyl)-2-[(2S*)-2-methyl-4-morpholinyl]-4-thiazolyl]methyl]-2-methyl-propanamide], the melting point came to 188 °C. In addition, the EC50 on human alpha 7-wt nAChR is 0.692 µM. The “PAM_Type PAM type” value in data set [1] is listed as 2.
Regarding `Cc1cc(-c2sc(N3CCOC(C(F)(F)F)C3)nc2CNC(=O)C(C)C)cc(C)n1` (stereo not shown) [Compound 194, N-[[5-(2,6-dimethyl-4-pyridinyl)-2-[2-(trifluoromethyl)-4-morpholinyl]-4-thiazolyl]methyl]-2-methyl-propanamide], the melting point worked out at 189 °C. In addition, the EC50 at human alpha 7-wt nAChR is 0.055 µM. Also, the “PAM_Type PAM type” value in data set [1] is given as 3.
`Cc1cc(-c2sc(N3CCO[C@@H](C(F)(F)F)C3)nc2CNC(=O)CC2CC2)cc(C)n1` [Compound 191, N-[[5-(2,6-dimethyl-4-pyridinyl)-2-[(2R)-2-(trifluoromethyl)-4-morpholinyl]-4-thiazolyl]methyl]-cyclopropaneacetamide] showed a melting point of 182 °C. Also, on human alpha 7-wt nAChR, the Emax came to 995% and the EC50 was 0.0741 µM. Moreover, in data set [1], the “PAM_Type PAM type” value came out at 2.
In the case of `Cc1cc(-c2sc(N3CCOC(C)C3)nc2CNC(=O)CC2CC2)cc(C)n1` (single isomer, unassigned) [Compound 75, N-[[5-(2,6-dimethyl-4-pyridinyl)-2-[(2R*)-2-methyl-4-morpholinyl]-4-thiazolyl]methyl]-cyclopropaneacetamide], the melting point turned out to be 170 °C. Further, at human alpha 7-wt nAChR, the “a7-PAM-G_[33]_Eff_Curve_FI % Efficacy” value amounted to 819% and the EC50 is 1.02 µM. The “PAM_Type PAM type” value in data set [1] was determined as 2.
On to `Cc1cc(-c2sc(N3CC4CCC(C3)O4)nc2CNC(=O)CC2CC2)cc(C)n1` [Compound 209, N-[[5-(2,6-dimethyl-4-pyridinyl)-2-(8-oxa-3-azabicyclo[3.2.1]oct-3-y1)-4-thiazolyl]methyl]-cyclopropaneacetamide], for which the melting point was 161 °C. Besides, at human alpha 7-wt nAChR, the Emax was found to be 705% and the EC50 was 3.16 µM. In addition, in data set [1], the “PAM_Type PAM type” value was found to be 0.
As for `Cc1nocc1C(=O)NCc1nc(N2C[C@@H](C)O[C@@H](C)C2)sc1-c1ccnc(C(F)(F)F)c1` [Compound 197, N-[[2-[(2R,6S)-2,6-dimethyl-4-morpholinyl]-5-[2-(trifluoromethyl)-4-pyridinyl]-4-thiazolyl]methyl]-3-methyl-4-isoxazolecarboxamide], the melting point amounted to 205 °C. In addition, the EC50 on human alpha 7-wt nAChR was 0.363 µM. The “PAM_Type PAM type” value in data set [1] was found to be 1.
In the same order, the values of `Cc1cc(-c2sc(N3CCOC(C)(C)C3)nc2CNC(=O)CC2CC2)cc(C)n1` [Compound 156, N-[[2-(2,2-dimethyl-4-morpholinyl)-5-(2,6-dimethyl-4-pyridinyl)-4-thiazolyl]methyl]-cyclopropaneacetamide] are 135 °C, 1.26 µM and 0.
In the same order, the values of `Cc1cc(-c2sc(N3CCOC(C(F)(F)F)C3)nc2CNC(=O)CC2CC2)cc(C)n1` (stereo not shown) [Compound 190, N-[[5-(2,6-dimethyl-4-pyridinyl)-2-[2-(trifluoromethyl)-4-morpholinyl]-4-thiazolyl]methyl]-cyclopropaneacetamide] are 168 °C, 0.0708 µM and 2.
The compound `Cc1ccc(-c2sc(N3C[C@@H](C)O[C@@H](C)C3)nc2CNC(=O)c2cc(C)on2)cn1` [Compound 118, N-[[2-[(2R,6S)-2,6-dimethyl-4-morpholinyl]-5-(6-methyl-3-pyridinyl)-4-thiazolyl]methyl]-5-methyl-3-isoxazolecarboxamide] came in with a melting point of 148 °C. At human alpha 7-wt nAChR, the Emax was determined as 430% and the EC50 is 1.86 µM. Also, the “PAM_Type PAM type” value in data set [1] is 0.

What is called melting point is the temperature, or range, at which the solid turns liquid.
